Literature values as cited in US10059967B2, “Microorganisms and processes for producing terephthalic acid and its salts” (Genomatica, Inc., priority 2012, dated 2018).

## Cc1ccc(C(=O)O)cc1 [p-toluate, 4-methylbenzoate]
  solubility in aqueous solution (in words): Only slightly soluble
